Patent US20240343704A1, “HALO-SUBSTITUTED AMINO PYRIDINE COMPOUNDS AS INHIBITORS OF THE HAEMATOPOIETIC PROGENITOR KINASE 1 (HPK1)” (priority 2021, published 2024)

Columns and labels:
Lck (h) = Lck (h) (Homo sapiens, UniProt P06239); experiment: Lck Human  Kinase Enzymatic Radiometric Assay; format: biochemical; conditions: read-out: Lck IC50 nM Range*
Outline: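 Substrate 33P-incorporation measured by scintillation counting after spotting on P30 filtermat and phosphoric acid washes. Human Lck reacted 40 min at RT in 50 mM Tris pH 7.5 with 10 mM MgAcetate, [gamma-33P]-ATP, 250 uM Cdc2 peptide, 0.1 mM EGTA and 0.1 mM Na3VO4.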

[1] = biological target: T1, Recombinant (1-346) HPK1 (h) (Homo sapiens, UniProt Q92918); experiment: HPK1 Human STE Kinase Enzymatic Radiometric Assay; format: biochemical; conditions: read-out: HPK1 IC50 nM Range*
T1 construct: Recombinant (1-346) HPK1 (h) is incubated with 8 mM MOPS pH 7.0
T1 sequence (Q92918 1-346): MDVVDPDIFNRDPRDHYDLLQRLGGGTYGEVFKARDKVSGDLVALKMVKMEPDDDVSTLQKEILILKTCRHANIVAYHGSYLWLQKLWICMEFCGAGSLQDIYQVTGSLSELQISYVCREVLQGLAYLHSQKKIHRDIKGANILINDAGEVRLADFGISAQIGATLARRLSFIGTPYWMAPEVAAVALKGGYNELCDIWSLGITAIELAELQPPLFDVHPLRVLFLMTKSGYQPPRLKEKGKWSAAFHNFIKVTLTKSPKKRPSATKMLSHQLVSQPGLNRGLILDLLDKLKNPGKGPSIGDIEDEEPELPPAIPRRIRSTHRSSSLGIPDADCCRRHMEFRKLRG
Experimental: A stock solution of 10 mM of test compound is prepared in DMSO. The compound plate was prepared by 3-fold and 9-point serial dilutions. […] The reaction is initiated by The addition of the Mg/ATP mix. After incubation for 40 minutes at RT, the reaction is stopped by the addition of phosphoric acid to a concentration of 0.5%.

Sequence of Lck (h) (P06239 whole entry): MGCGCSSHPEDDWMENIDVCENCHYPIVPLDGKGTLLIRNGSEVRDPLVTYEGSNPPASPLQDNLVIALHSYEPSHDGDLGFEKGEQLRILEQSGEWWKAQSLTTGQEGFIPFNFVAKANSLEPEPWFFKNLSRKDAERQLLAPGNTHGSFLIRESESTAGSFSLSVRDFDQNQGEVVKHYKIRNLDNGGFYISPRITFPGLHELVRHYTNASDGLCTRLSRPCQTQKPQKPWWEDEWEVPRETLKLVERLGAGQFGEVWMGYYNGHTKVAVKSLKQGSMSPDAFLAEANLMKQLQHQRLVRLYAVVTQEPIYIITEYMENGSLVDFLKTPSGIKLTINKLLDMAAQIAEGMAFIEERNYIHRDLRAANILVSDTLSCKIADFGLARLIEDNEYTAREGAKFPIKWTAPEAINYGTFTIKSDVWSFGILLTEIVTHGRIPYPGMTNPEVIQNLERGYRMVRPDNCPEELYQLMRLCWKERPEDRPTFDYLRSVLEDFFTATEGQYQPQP

Row | IC50 (Lck (h)) | IC50 [1] | Structure (SMILES)
1 | > 1000 nM | 101 to 1000 nM | CN1CCN(C(=O)c2cccc(-c3cc(-c4ccc5c(c4)CCNC5=O)c(N)nc3F)c2)CC1 [I-331, 6-(2-amino-6-fluoro-5-(3-(4-methylpiperazine-1-carbonyl)phenyl)pyridin-3-yl)-3,4-dihydroisoquinolin-1(2H)-one]
2 | > 1000 nM | 0.1 to 10 nM | Nc1nc(F)c(-c2ccc(O[C@H]3CCCNC3)cc2)cc1-c1ccc2c(c1)CCNC2=O [I-94, (S)-6-(2-amino-6-fluoro-5-(4-(piperidin-3-yloxy)phenyl)pyridin-3-yl)-3,4-dihydroisoquinolin-1(2H)-one]
3 | 0.1 to 10 nM | 0.1 to 10 nM | CC(=O)N1CCC(Oc2ccc(-c3cc(-c4ccc5c(c4)CCNC5=O)c(N)nc3F)cc2F)CC1 [I-290, 6-(5-(4-((1-acetylpiperidin-4-yl)oxy)-3-fluorophenyl)-2-amino-6-fluoropyridin-3-yl)-3,4-dihydroisoquinolin-1(2H)-one]
4 | > 1000 nM | 0.1 to 10 nM | Nc1nc(F)c(-c2ccc(N3CCNCC3)c(C(F)(F)F)c2)cc1-c1cc2c(cc1F)C(=O)NCC2 [I-219, 6-(2-amino-6-fluoro-5-(4-(piperazin-1-yl)-3-(trifluoromethyl)phenyl)pyridin-3-yl)-7-fluoro-3,4-dihydroisoquinolin-1(2H)-one]
5 | > 1000 nM | 0.1 to 10 nM | CC(C)C(=O)N1C[C@H]2C[C@@]2(c2ccc(-c3cc(-c4ccc5c(c4)CCNC5=O)c(N)nc3F)cc2)C1 [I-143, 6-(2-amino-6-fluoro-5-(4-((1R,5S)-3-isobutyryl-3-azabicyclo[3.1.0]hexan-1-yl)phenyl)pyridin-3-yl)-3,4-dihydroisoquinolin-1(2H)-one]
6 | > 1000 nM | 0.1 to 10 nM | CN(C)Cc1cc(-c2cc(-c3ccc4c(c3)CCNC4=O)c(N)nc2F)ccc1N1CCN(C2CCCC2)CC1 [I-451, 6-(2-amino-5-(4-(4-cyclopentylpiperazin-1-yl)-3-((dimethylamino)methyl)phenyl)-6-fluoropyridin-3-yl)-3,4-dihydroisoquinolin-1(2H)-one]
7 | > 1000 nM | 11 to 100 nM | CCN1CCN(c2ccc(-c3cc(-c4ccc5c(c4)CC(C)(C)NC5=O)c(N)nc3F)cc2)CC1 [I-70, 6-(2-amino-5-(4-(4-ethylpiperazin-1-yl)phenyl)-6-fluoropyridin-3-yl)-3,3-dimethyl-3,4-dihydroisoquinolin-1(2H)-one 2,2,2-trifluoroacetate]
8 | > 1000 nM | 0.1 to 10 nM | Nc1nc(F)c(-c2ccc3c(c2)OCCCO3)cc1-c1cc2c(cc1F)C(=O)NCC2 [I-205, 6-(2-amino-5-(3,4-dihydro-2H-benzo[b][1,4]dioxepin-7-yl)-6-fluoropyridin-3-yl)-7-fluoro-3,4-dihydroisoquinolin-1(2H)-one]
9 | > 1000 nM | 0.1 to 10 nM | CN1CCC(Oc2ccc(-c3cc(-c4ccc5c(c4)CCNC5=O)c(N)nc3F)cc2)CC1 [I-44, 6-(2-amino-6-fluoro-5-(4-((1-methylpiperidin-4-yl)oxy)phenyl)pyridin-3-yl)-3,4-dihydroisoquinolin-1(2H)-one]
10 | > 1000 nM | 0.1 to 10 nM | Nc1nc(F)c(-c2ccc(N3CCN(CC4CC4)CC3)cc2)cc1-c1cc2nc[nH]c(=O)c2cc1F [I-408, 7-(2-amino-5-(4-(4-(cyclopropylmethyl)piper-azin-1-yl)phenyl)-6-fluoropyridin-3-yl)-6-fluoroquinazolin-4(3H)-one]
11 | > 1000 nM | 11 to 100 nM | Cc1nc2cc(-c3cc(-c4ccc(N5CCN(C(C)C)CC5)cc4)c(F)nc3N)c(F)cc2c(=O)[nH]1 [I-439, 7-(2-amino-6-fluoro-5-(4-(4-isopropylpiperazin-1-yl)phenyl)pyridin-3-yl)-6-fluoro-2-methylquinazolin-4(3H)-one]
12 | > 1000 nM | 101 to 1000 nM | CC(C)N1CCN(c2ccc(-c3cc(-c4cc5c(c(N(C)C)c4)C(=O)NCC5)c(N)nc3F)cc2)CC1 [I-355, 6-(2-amino-6-fluoro-5-(4-(4-isopropylpiperazin-1-yl)phenyl)pyridin-3-yl)-8-(dimethylamino)-3,4-dihydroisoquinolin-1(2H)-one]
13 | > 1000 nM | 0.1 to 10 nM | CC(C)N1C[C@H]2C[C@@]2(c2ccc(-c3cc(-c4cc(F)c5c(c4)CCNC5=O)c(N)nc3F)cc2)C1 [I-301, 6-(2-amino-6-fluoro-5-(4-((1R,5S)-3-isopropyl-3-azabicyclo[3.1.0]hexan-1-yl)phenyl)pyridin-3-yl)-8-fluoro-3,4-dihydroisoquinolin-1(2H)-one]

Further lines, the molecule ahead of its results:

Row | Structure (SMILES) | IC50 (Lck (h)) | IC50 [1]
14 | CCN1CCOC(c2ccc(-c3cc(-c4ccc5c(c4)CCNC5=O)c(N)nc3F)cc2)C1 (stereo not shown) [I-102, 6-(2-amino-5-(4-(4-ethylmorpholin-2-yl)phenyl)-6-fluoropyridin-3-yl)-3,4-dihydroisoquinolin-1(2H)-one] | > 1000 nM | 11 to 100 nM
15 | COCCN1CCC(Oc2ccc(-c3cc(-c4ccc5c(c4)CCNC5=O)c(N)nc3F)cc2)CC1 [I-189, 6-(2-amino-6-fluoro-5-(4-((1-(2-methoxyethyl)piperidin-4-yl)oxy)phenyl)pyridin-3-yl)-3,4-dihydroisoquinolin-1(2H)-one] | > 1000 nM | 0.1 to 10 nM
16 | CC(C)N1C[C@@H]2C[C@]2(c2ccc(-c3cc(-c4cc5c(cc4F)C(=O)NCC5)c(N)nc3F)cc2)C1 [I-142, 6-(2-amino-6-fluoro-5-(4-((1S,5R)-3-isopropyl-3-azabicyclo[3.1.0]hexan-1-yl)phenyl)pyridin-3-yl)-7-fluoro-3,4-dihydroisoquinolin-1(2H)-one] | > 1000 nM | 0.1 to 10 nM
17 | CC(C)(O)CN1C[C@H]2C[C@@]2(c2ccc(-c3cc(-c4ccc5c(c4)CCNC5=O)c(N)nc3F)cc2)C1 [I-125, 6-(2-amino-6-fluoro-5-(4-((1R,5S)-3-(2-hydroxy-2-methylpropyl)-3-azabicyclo[3.1.0]hexan-1-yl)phenyl)pyridin-3-yl)-3,4-dihydroisoquinolin-1(2H)-one] | > 1000 nM | 0.1 to 10 nM
18 | CN1[C@@H]2CC[C@H]1CN(c1ccc(-c3cc(-c4ccc5c(c4)CCNC5=O)c(N)nc3F)cc1)C2 [I-13, 6-(2-amino-6-fluoro-5-(4-((1R,5S)-8-methyl-3,8-diazabicyclo[3.2.1]octan-3-yl)phenyl)pyridin-3-yl)-3,4-dihydroisoquinolin-1(2H)-one] | 101 to 1000 nM | 0.1 to 10 nM
19 | CC(C)[C@@H]1CN(c2ccc(-c3cnc(N)c(-c4ccc5c(c4)CCNC5=O)c3F)cc2)CCO1 [I-4, (R)-6-(2-amino-4-fluoro-5-(4-(2-isopropylmorpholino)phenyl)pyridin-3-yl)-3,4-dihydroisoquinolin-1(2H)-one] | > 1000 nM | 11 to 100 nM
20 | Nc1nc(F)c(-c2ccc(N3CCOCC3)c(CN3CCC3)c2F)cc1-c1ccc2c(c1)CCNC2=O [I-609, 6-(2-amino-5-(3-(azetidin-1-ylmethyl)-2-fluoro-4-morpholinophenyl)-6-fluoropyridin-3-yl)-3,4-dihydroisoquinolin-1(2H)-one] | > 1000 nM | 11 to 100 nM
21 | Nc1nc(F)c(-c2ccc(C3=CCNCC3)cc2)cc1-c1ccc2c(c1)CCNC2=O [I-57, 6-(2-amino-6-fluoro-5-(4-(1,2,3,6-tetrahydropyridin-4-yl)phenyl)pyridin-3-yl)-3,4-dihydroisoquinolin-1(2H)-one 2,2,2-trifluoroacetate] | > 1000 nM | 0.1 to 10 nM
22 | CCN1CCN(c2ccc(-c3cc(-c4cc(F)c5c(=O)[nH]ccc5c4)c(N)nc3F)cc2)CC1 [I-394, 6-(2-amino-5-(4-(4-ethylpiperazin-1-yl)phenyl)-6-fluoropyridin-3-yl)-8-fluoroisoquinolin-1(2H)-one] | 101 to 1000 nM | 0.1 to 10 nM
23 | CN(C)Cc1cc(-c2cc(-c3cc(F)c4c(c3)CCNC4=O)c(N)nc2F)ccc1C1CCOCC1 [I-436, 6-(2-amino-5-(3-((dimethylamino)methyl)-4-(tetrahydro-2H-pyran-4-yl)phenyl)-6-fluoropyridin-3-yl)-8-fluoro-3,4-dihydroisoquinolin-1(2H)-one] | > 1000 nM | 0.1 to 10 nM
24 | CCN(C)Cc1nc(-c2cc(-c3ccc4c(c3)CCNC4=O)c(N)nc2F)ccc1N1CCOCC1 [I-580, 6-(6′-amino-6-((ethyl(methyl)amino)methyl)-2′-fluoro-5-morpholino-[2,3′-bipyridin]-5′-yl)-3,4-dihydroisoquinolin-1(2H)-one] | > 1000 nM | 0.1 to 10 nM
25 | C[Si](C)(O)c1ccc(-c2cc(-c3ccc4c(c3)CCNC4=O)c(N)nc2F)cc1 [I-28, 6-(2-amino-6-fluoro-5-(4-(hydroxydimethylsilyl)phenyl)pyridin-3-yl)-3,4-dihydroisoquinolin-1(2H)-one] | > 1000 nM | 11 to 100 nM
26 | CN(C)CC1Cc2cc(-c3cc(-c4ccc(Cl)cc4)c(F)nc3N)ccc2C(=O)N1 (stereo not shown) [I-312, 6-(2-amino-5-(4-chlorophenyl)-6-fluoropyridin-3-yl)-3-((dimethylamino)methyl)-3,4-dihydroisoquinolin-1(2H)-one] | > 1000 nM | 101 to 1000 nM
